In general, inhibition refers to the percentage by which the read-out fell short of the control.

The structures appear in SMILES notation. “Also recorded” adds a separate entry of the source. Where a SMILES comes first, the peptide text is derived from it. The star is where a group is joined. Cbz = O=C(OCc1ccccc1)*; CH2F = FC*

The subject of assay [1] is adult male Wistar rats. The conditions noted are these: for lung lesions, histology / total lung collagens by hydroxyproline assay: 14 days post-bleomycin. The procedure: Adult male Wistar rats were given intratracheal instillations of 8 U/kg bleomycin sulfate (BLEO) or sterile saline. […] Lung fibrosis was assessed by picrosirius red (PR) quantitation of lung collagen and by hydroxyproline (HP) assay at 14 days after BLEO administration. At the same time point, fragmented DNA in lung epithelial cells was detected by in situ end labeling (ISEL).
Animals and Induction of Pulmonary Fibrosis. Forty adult male Wistar rats, 175-200 grams, were divided into four groups; three groups received a single intratracheal instillation of 8 units per kilogram of bleomycin sulfate (BLEO) in sterile saline. Two days before the administration of BLEO, one group received captopril in the drinking water at a concentration of 500 mg/liter. […] Control animals (NORM) received administrations of the vehicles only.
Immediately before sacrifice, animals were given intraperitoneal injections of sodium pentobarbital and the trachea was cannulated. The middle right lobe was ligated at the hilus, was excised distal to the ligation and was immediately frozen in liquid N2 for hydroxyproline assay of total collagen (see below). The remaining lung tissues were carefully removed and were instilled with 4% paraformaldehyde in PBS at 20 cm H2O constant pressure, then immersed in the same fixative for two hours. The fixed tissues were washed with PBS three times for 15 minutes and were then embedded in paraffin. Five-micron sections of lung were deparaffinized by passing through xylene, xylene:alcohol 1:1, 100% alcohol and 70% alcohol for 10 minutes each. Ethanol was removing by rinsing with distilled water.
In situ end-labeling (ISEL) of fragmented DNA. ISEL was conducted by a modification of the method of Mundle et al., Cell Death and Differentiation, 1: 117-122 (1994). Briefly, ethanol was removed from deparaffinized lung sections by rinsing in distilled water for at least 10 minutes. The slides were then placed in 3% hydrogen peroxide (Sigma Chemical, St. Louis, Mo.) for 30 minutes at 20° C., rinsed with PBS, and incubated with Proteinase K (Sigma Chemical, St. Louis, Mo.) in saline sodium citrate solution (SSC) (0.3 M NaCi and 30 mM sodium citrate in water, pH 7.0) for 15 minutes at 37° C. Samples were rinsed once in water, three times in 0.15 M PBS for 4 minutes each, and then incubated in SSC at 80° C. for 20 minutes. After four rinses in PBS and four rinses in Buffer A (50 mM Tris/HCl, 5 mM MgCl, 10 mM β-mercaptoethanol and 0.005% BSA in water, pH 7.5), the sections were incubated at 18° C. for two hours with ISEL solution (0.001 mM digoxigenin-dUTP, 20 U/ml DNA Polymerase 1 and 0.01 mM each of dATP, dCTP and dGTP in Buffer A). The sections were then rinsed thoroughly five times with Buffer A and three times with PBS. Detection of incorporated dUTP was achieved by incubation for two hours at 37° C. with AP-conjugated anti-digoxigenin (Boerhinger Mannheim, Indianapolis, Ind.) at a 1:400 dilution. Bound AP-antibody complexes were detected with the Fast Blue chromogen system and the sections were mounted with Fluoromount Solution (Southern Biotechnology, Birmingham, Ala.).
Identification of Collagen. Collagens were localized through staining of lung sections by the picrosirius red technique, see Pick et al., Am. J. Pathol. 134:365-371 (1989), which has absolute specificity for collagen. Briefly, sections deparaffinized with xylenes were rehydrated through a descending series of ethanols to distilled water. The hydrated sections were immersed in 0.2% aqueous phosphomolybdic acid for 2 minutes, rinsed in distilled water and then stained for 110 minutes with 0.1% Sirius Red F3BA (Pfal and Bauer, Stamford, Conn.) in saturated aqueous picric acid, pH 2.0. The sections were washed for 2 minutes in 0.01 N HCl, rinsed for 45 seconds in 70% ethanol, dehydrated in three changes of absolute alcohol, cleared in xylene and mounted in a nonaqueous mounting medium.

Assay [2] has as its system primary alveolar epithelial cells (AEC). Kind of assay: Bleomycin-induced apoptosis of primary AEC in vitro. The procedure: Lung Cell Isolation and Detection of Apoptosis In Vitro. Primary alveolar epithelial cells (AEC) were isolated from adult male Wistar rats as described above. The primary cells were studied at day two of culture, a time at which they are type II cell-like by accepted morphologic and biochemical criteria, see Paine et al., Am. J. Physiol. […] All cells were seeded in 24-well or 6-well chambers, and all experiments were conducted at subconfluent densities of 80-90% in serum-free Ham's F12 medium. Test reagents were diluted with Ham's F12 medium and were applied for 20 hours at 37° C. in a 5% CO2 incubator.
Detection of apoptotic cells with propidium iodide (PI) was conducted as described above, following digestion of ethanol-fixed cells with DNAse-free RNAse in PBS containing 5 ug/ml PI.
Apoptosis was detected as described above.

Assay [3] concerns A549 cells. Kind of assay: FAS-induced apoptosis (activating anti-FAS antibody CH-11) in A549 cells, ISEL / nuclear fragmentation. Type of assay: cell-based, human. The conditions noted are these: CH-11 200 ng/ml; lisinopril 500 ng/ml, saralasin 5 mg/ml.
For assay [4], the system named is primary rat alveolar epithelial cells. Kind of assay: Apoptosis of rat AEC induced by human lung fibroblast-conditioned media. Type of assay: cell-based. The conditions noted are these: saralasin 50 ug/ml, DEVD-fmk 60 uM, anti-ANGII IgG 1 ug/ml.
Source text: Fibroblast Isolation, Culture and Preparation of Conditioned Media. Primary human lung fibroblasts were isolated at the National Institute of Respiratory Diseases, Mexico. […] Of these, “fibrotic” lung fibroblast strains (HIPF-X, where X=patient number) were derived from patients suffering from either of two different types of interstitial lung disease (ILD): Idiopathic Pulmonary Fibrosis (IPF) and Chronic Hypersensitivity Pneumonitis (CHP). In both diseases, patients had clinical, functional and radiologic features which fulfill the diagnostic criteria for an ILD. […] Briefly, all patients had progressive dyspnea, bilateral reticulonodular images on chest roentgenogram, restrictive lung functional impairment with decreased lung volumes and compliance, and hypoxemia at rest that worsened with exercise. […] Patients with IPF had neither antecedents of any occupational or environmental exposure nor other known cause of ILD. […] Biopsies lacked granulomas, vasculitis, microorganisms, and inorganic material by polarized light microscopy.
Control fibroblasts were obtained from individuals having undergone a lobectomy for removal of a primary lung tumor. […] Lung fibroblasts from normal or fibrotic tissue were isolated by trypsin dispersion, and fibroblast strains were established in Dulbecco's modified Eagle's medium (or in Ham's F-12 medium) supplemented with 10% fetal calf serum, 200 U/ml penicillin, and 200 mg/ml streptomycin. […]
Epithelial Cell Culture and Detection of Apoptosis. […] All epithelial cell preparations were greater than 90% pure as determined by acridine orange uptake into lamellar bodies. […] Epithelial cell apoptosis was detected by the assessment, under fluorescence microscopy, of chromatin condensation and nuclear fragmentation within cytokeratin-positive cells after ethanol fixation and staining with propidium iodide. […]
The percentage increase in rat AEC apoptosis was determined by propidium iodide assay of primary alveolar epithelial cells exposed to serum-free conditioned media, see Uhal et al., Am.
The subject of assay [5] is angiotensinogen (ANGEN) mRNA. Kind of assay: Quantitative RT-PCR of angiotensinogen mRNA in Fas-activated primary rat AEC. Type of assay: cell-based. The conditions noted are these: Fas ligand. The protocol: RT-PCR. Reverse transcriptase polymerase chain reaction (RT-PCR) assay of angiotensinogen gene products was performed as described in Wang et al., Am. J. Physiol. 276:L885-L889 (1999) in a total reaction volume of 30 μl. Total RNA was isolated by the RNeasy Mini protocol (Qiagen Co., Santa Clarita, Calif.). The reaction was performed for 1 hour at 45 C. followed by 20 cycles of PCR amplification. PCR amplification was performed with 10 ul aliquots of cDNA, equivalent to 1 ug of the starting RNA. The identity of expressed genes was determined by expected size of the PCR product in 1.6% agarose gels.
For RT-PCR of rat-specific gene products, the following primers were used: for angiotensinogen, coding=5′ […] 3′, and noncoding=5′ […] 3′, which yields a PCR product of 226 bp by single-step RT-PCR (Pierzchalski et al., Exp. Cell Res. 234:57-65 (1997)). For β-microglobulin, the primers used were: coding=5′ […] 3′, and noncoding=5′ […] 3′, which yields a product of 249 bp (Katwa et al., Cardiovasc. Res. 29:57-64 (1995)).
To confirm this, total RNA was isolated from human A549 cells or primary rat AEC that were unactivated (CTL) or activated with Fas-ligating CH-11 antibody or purified Fas ligand in the presence or absence of saralasin (SAR). Quantitative RT-PCR was performed with primers specific for human or rat angiotensinogen (ANGEN), β-actin or β-microglobulin (b-MG). […]

Regarding `COC(=O)C[C@H](NC(=O)[C@H](C)NC(=O)[C@@H](NC(=O)OCc1ccccc1)C(C)C)C(=O)CF` [ZVAD-fmk, N-benzylcarboxy-Val-Ala-Asp-[O-Me]-CH2F] (Cbz-Val-Ala-Asp(OMe)-CH2F), in assay [1], the “lung lesions, histology” value was “much less extensive” and the “total lung collagens by hydroxyproline assay” value is “inhibited lung collagen accumulation”. Moreover, in assay [1] (captopril 500 mg/liter drinking water, ZVAD-fmk 1 mg per kg daily i.p., 14 days after BLEO), the “inhibition of accumulation of lung collagens” value stood at 85%. Also, the “inhibition of bleomycin-induced apoptosis of AEC in vitro” value in assay [2] (bleomycin 50 uM, captopril 500 ng/ml, ZVAD-fmk 60 uM, aurintricarboxylic acid 10 uM) is reported as 78%.

For `C[C@H](CS)C(=O)N1CCC[C@H]1C(=O)O` [captopril], in assay [1] (14 days after BLEO), the “inhibition of ISEL labeling in AEC” value came to 99% and the “inhibition of ISEL labeling in airway epithelial cells” value came to 67%. Further, in assay [1], the “lung lesions, histology” value is listed as “much less extensive” and the “total lung collagens by hydroxyproline assay” value is recorded as “inhibited lung collagen accumulation”. In assay [2] (Rattus norvegicus, Epithelial cell, read-out: inhibition of bleomycin-induced apoptosis of AEC in vitro), the inhibition at 0.5 µg/mL is 76%.

Consider `NCCCC[C@H](N[C@@H](CCc1ccccc1)C(=O)O)C(=O)N1CCC[C@H]1C(=O)O` [lisinopril], for which, in assay [3], the “inhibition of FAS-induced apoptosis” value turned out to be 61%.

Regarding `CNCC(=O)N[C@@H](CCCN=C(N)N)C(=O)N[C@H](C(=O)N[C@@H](Cc1ccc(O)cc1)C(=O)N[C@H](C(=O)N[C@@H](Cc1cnc[nH]1)C(=O)N1CCC[C@H]1C(=O)N[C@@H](C)C(=O)O)C(C)C)C(C)C` [saralasin], the “inhibition of FAS-induced apoptosis” value in assay [3] is on record as 71%. Besides, the “inhibition of apoptosis induced by HIPF-conditioned media” value in assay [4] is on record as “completely abrogated; also recorded: eliminated”. For the same compound, the “effect on accumulation of ANGEN mRNA during Fas activation” value in assay [5] is recorded as “had no effect”.

Values taken from US20030113330A1, “Methods for treating pulmonary fibrosis” (priority 1999, published 2003).
